Reference: patent US6472348B1, “Pyridone derivatives and herbicides” (Kumiai Chemical Industry Co., Ltd., priority 1996, dated 2002)

Key:
Format in all cases: in vivo
[1] = tested on: barnyardgrass (Ec); assay: Test Example 2: herbicidal effects by upland field soil treatment; conditions: 100 g of the active ingredient per 10 ares, 21st day after the application, index 0-5 of Table 47;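 also: grade of growth control; 5 = at least 90%; 4 = 70 to 90%; 3 = 50 to 70%; 2 = 30 to 50%; 1 = 10 to 30%; 0 = under 10%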
Description: (§1) (Test on Herbicidal Effects by Upland Field Soil Treatment)

[2] = tested on: pale smartweed (Po); assay: as above; conditions: 100 g of the active ingredient per 10 ares, 21st day after the application, index 0-5 of Table 47
Description: as §1

[3] = tested on: rice flatsedge (Ci); assay: as above; conditions: 100 g of the active ingredient per 10 ares, 21st day after the application, index 0-5 of Table 47
Description: as §1

[4] = tested on: common lambsquarters (Ch); assay: as above; conditions: 100 g of the active ingredient per 10 ares, 21st day after the application, index 0-5 of Table 47
Description: as §1

[5] = tested on: Digitaria ciliaris (Di); assay: as above; conditions: 100 g of the active ingredient per 10 ares, 21st day after the application, index 0-5 of Table 47;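 also: grade of growth control; 5 = at least 90%; 4 = 70 to 90%; 3 = 50 to 70%; 2 = 30 to 50%; 1 = 10 to 30%; 0 = under 10%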
Description: as §1

[6] = tested on: slender amaranth (Am); assay: as above; conditions: 100 g of the active ingredient per 10 ares, 21st day after the application, index 0-5 of Table 47
Description: as §1

[7] = tested on: barnyardgrass (Ec); assay: Test Example 3: herbicidal effects by upland field foliage treatment; design: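 grade of growth control; 5 = at least 90%; 4 = 70 to 90%; 3 = 50 to 70%; 2 = 30 to 50%; 1 = 10 to 30%; 0 = under 10%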; conditions: 100 g of the active ingredient per 10 ares, evaluated on the 14th day after treatment
Method in brief: (§2)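 Two-week-old greenhouse seedlings, raised in sand-filled pots (120 cm^2) with seed covered by soil, receive a foliar application. Effects are then evaluated by standard grades 14 days later, plants remaining in the greenhouse meanwhile.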

[8] = tested on: Diaitaria ciliaris (Di); assay: as above; design: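 grade of growth control; 5 = at least 90%; 4 = 70 to 90%; 3 = 50 to 70%; 2 = 30 to 50%; 1 = 10 to 30%; 0 = under 10%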; conditions: 100 g of the active ingredient per 10 ares, evaluated on the 14th day after treatment
Method in brief: as §2

[9] = tested on: pale smartweed (Po); assay: as above; design: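 grade of growth control; 5 = at least 90%; 4 = 70 to 90%; 3 = 50 to 70%; 2 = 30 to 50%; 1 = 10 to 30%; 0 = under 10%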; conditions: 100 g of the active ingredient per 10 ares, evaluated on the 14th day after treatment
Method in brief: as §2

[10] = tested on: rice flatsedge (Ci); assay: as above; design: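 grade of growth control; 5 = at least 90%; 4 = 70 to 90%; 3 = 50 to 70%; 2 = 30 to 50%; 1 = 10 to 30%; 0 = under 10%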; conditions: 100 g of the active ingredient per 10 ares, evaluated on the 14th day after treatment
Method in brief: as §2

[11] = tested on: common lambsquarters (Ch); assay: as above; design: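 grade of growth control; 5 = at least 90%; 4 = 70 to 90%; 3 = 50 to 70%; 2 = 30 to 50%; 1 = 10 to 30%; 0 = under 10%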; conditions: 100 g of the active ingredient per 10 ares, evaluated on the 14th day after treatment
Method in brief: as §2

[12] = tested on: slender amaranth (Am); assay: as above; design: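 grade of growth control; 5 = at least 90%; 4 = 70 to 90%; 3 = 50 to 70%; 2 = 30 to 50%; 1 = 10 to 30%; 0 = under 10%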; conditions: 100 g of the active ingredient per 10 ares, evaluated on the 14th day after treatment
Method in brief: as §2

[13] = tested on: barnyardgrass (Ec); assay: Test Example 1: herbicidal effects by paddy field soil treatment; conditions: 100 g of the active ingredient per 10 ares, 21st day after the application, index 0-5 of Table 47;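 also: grade of growth control; 5 = at least 90%; 4 = 70 to 90%; 3 = 50 to 70%; 2 = 30 to 50%; 1 = 10 to 30%; 0 = under 10%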
Method in brief: (§3)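 Flooded paddy-soil pots (3 cm water) sown after puddling/leveling; treatment 100 g a.i./10 ares; greenhouse culture; herbicidal effect rated visually on a scoring scale at 21 d post-application.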

[14] = tested on: bulrush (Sc); assay: as above; conditions: 100 g of the active ingredient per 10 ares, 21st day after the application, index 0-5 of Table 47;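 also: grade of growth control; 5 = at least 90%; 4 = 70 to 90%; 3 = 50 to 70%; 2 = 30 to 50%; 1 = 10 to 30%; 0 = under 10%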
Method in brief: as §3

[15] = tested on: monochoria (Mo); assay: as above; conditions: 100 g of the active ingredient per 10 ares, 21st day after the application, index 0-5 of Table 47
Method in brief: as §3

| SMILES | Herbicidal effects Ec [1] | Herbicidal effects Po [2] | Herbicidal effects Ci [3] | Herbicidal effects Ch [4] | Herbicidal effects Di [5] | Herbicidal effects Am [6] | Herbicidal effects Ec [7] | Herbicidal effects Di [8] | Herbicidal effects Po [9] | Herbicidal effects Ci [10] | Herbicidal effects Ch [11] | Herbicidal effects Am [12] | Herbicidal effects Ec [13] | Herbicidal effects Sc [14] | Herbicidal effects Mo [15] |
| --- | --- | --- | --- | --- | --- | --- | --- | --- | --- | --- | --- | --- | --- | --- | --- |
| CC(C)Sc1cc(-c2ccc(C(F)(F)F)n(C)c2=O)c(Cl)cc1Cl [1-51] | 4 | 5 | 5 | 5 | 5 | 5 | 4 | 5 | 5 | 5 | 5 | 5 | 5 | 5 | 5 |
| CCS(=O)(=O)Nc1cc(-c2ccc(C(F)(F)F)n(C)c2=O)c(F)cc1Cl [1-61] | 5 | 5 | 5 | 5 | 5 | 5 | 5 | 5 | 5 | 5 | 5 | 5 | 5 | 5 | 5 |
| CCOC(=O)C(C)Nc1cc(-c2ccc(C(F)(F)F)n(C)c2=O)c(F)cc1Cl (stereo not drawn) [1-64] | 5 | 5 | 5 | 5 | 5 | 5 | 5 | 5 | 5 | 5 | 5 | 5 | 5 | 5 | 5 |
| CCSC(=O)c1cc(-c2ccc(C(F)(F)F)n(C)c2=O)c(F)cc1Cl [1-67] | 5 | 5 | 5 | 5 | 5 | 5 | 5 | 5 | 5 | 5 | 5 | 5 | 5 | 5 | 5 |
| C=CCOc1cc(-c2cc(C)c(C(F)(F)F)n(C)c2=O)c(F)cc1Cl [1-77] | 5 | 5 | 5 | 5 | 5 | 5 | 5 | 5 | 5 | 5 | 5 | 5 | 5 | 5 | 5 |
| C#CC(C)Oc1cc(-c2cc(C)c(C(F)(F)F)n(C)c2=O)c(F)cc1Cl (stereo not drawn) [1-78] | 5 | 5 | 5 | 5 | 5 | 5 | 5 | 5 | 5 | 5 | 5 | 5 | 5 | 5 | 5 |
| Cc1cc(-c2cc(OC(C)C)c(Cl)cc2F)c(=O)n(C)c1C(F)(F)F [1-80] | 5 | 5 | 5 | 5 | 5 | 5 | 5 | 5 | 5 | 5 | 5 | 5 | 5 | 5 | 5 |
| COC(=O)COc1cc(-c2ccc(C(F)(F)F)n(C)c2=O)c(F)cc1Cl [1-99] | 5 | 5 | 5 | 5 | 5 | 5 | 5 | 5 | 5 | 5 | 5 | 5 | 5 | 5 | 5 |
| Cn1c(C(F)(F)F)ccc(-c2cc(OCC(=O)OC3CCCC3)c(Cl)cc2F)c1=O [1-102] | 5 | 4 | 5 | 5 | 5 | 5 | 5 | 5 | 5 | 5 | 5 | 5 | 5 | 5 | 5 |
| CCCOC(=O)COc1cc(-c2ccc(C(F)(F)F)n(C)c2=O)c(F)cc1Cl [1-104] | 5 | 5 | 5 | 5 | 5 | 5 | 5 | 5 | 5 | 5 | 5 | 5 | 5 | 5 | 5 |
| Cn1c(C(F)(F)F)ccc(-c2cc(OCC(=O)O)c(Cl)cc2F)c1=O [1-105] | 5 | 5 | 5 | 5 | 5 | 5 | 5 | 5 | 5 | 5 | 5 | 5 | 5 | 5 | 5 |
| Cn1c(C(F)(F)F)ccc(-c2cc(C3OCCO3)c(Cl)cc2F)c1=O [1-133] | 5 | 5 | 5 | 5 | 5 | 5 | 5 | 5 | 5 | 5 | 5 | 5 | 5 | 5 | 5 |
| Cn1c(C(F)(F)F)ccc(-c2cc(CO)c(Cl)cc2F)c1=O [1-135] | 5 | 5 | 5 | 5 | 5 | 5 | 5 | 5 | 5 | 5 | 5 | 5 | 5 | 5 | 5 |
